From the NIST ThermoML archive (doi:10.1016/j.jct.2016.10.023)

Assay: xn = mol fraction of the nth substance listed
Conditions: Constant-volume piezometry

CCCCC [pentane] + CCCO
Conditions	mass density [kg/m3]
492.15 K, 4052 kPa, Gas, x1 = 0.5	144.33
492.15 K, 4112 kPa, Gas, x1 = 0.5	154.72
493.15 K, 888 kPa, Gas, x1 = 0.5	15.54
493.15 K, 1226 kPa, Gas, x1 = 0.8	22.56
493.15 K, 1421 kPa, Gas, x1 = 0.2	24.96
493.15 K, 1591 kPa, Gas, x1 = 0.5	30.02
493.15 K, 1810 kPa, Gas, x1 = 0.8	36.74
493.15 K, 2098 kPa, Gas, x1 = 0.5	40.54
493.15 K, 2429 kPa, Gas, x1 = 0.5	51.17
493.15 K, 2601 kPa, Gas, x1 = 0.8	58.5
493.15 K, 2706 kPa, Gas, x1 = 0.2	53.08
493.15 K, 2984 kPa, Gas, x1 = 0.5	67.61
493.15 K, 3042 kPa, Gas, x1 = 0.8	73.9
493.15 K, 3148 kPa, Gas, x1 = 0.5	72.7
493.15 K, 3184 kPa, Gas, x1 = 0.9	83.5
493.15 K, 3462 kPa, Gas, x1 = 0.5	89.03
493.15 K, 3598 kPa, Gas, x1 = 0.5	95.98
493.15 K, 3742 kPa, Gas, x1 = 0.8	106.55
493.15 K, 3862 kPa, Fluid (supercritical or subcritical phases), x1 = 0.9	123.52
493.15 K, 3941 kPa, Gas, x1 = 0.5	122.07
493.15 K, 3987 kPa, Fluid (supercritical or subcritical phases), x1 = 0.9	134.31
493.15 K, 4087 kPa, Gas, x1 = 0.5	144.32
493.15 K, 4129 kPa, Liquid, x1 = 0.2	471.17
493.15 K, 4161 kPa, Gas, x1 = 0.5	154.71
493.15 K, 4227 kPa, Gas, x1 = 0.5	165.38
493.15 K, 4237 kPa, Fluid (supercritical or subcritical phases), x1 = 0.8	140.51
493.15 K, 4263 kPa, Gas, x1 = 0.5	183.12
493.15 K, 4268 kPa, Fluid (supercritical or subcritical phases), x1 = 0.9	164.19
493.15 K, 4335 kPa, Fluid (supercritical or subcritical phases), x1 = 0.5	282.8
493.15 K, 4335 kPa, Fluid (supercritical or subcritical phases), x1 = 0.8	156.27
493.15 K, 4414 kPa, Fluid (supercritical or subcritical phases), x1 = 0.5	299.12
493.15 K, 4423 kPa, Fluid (supercritical or subcritical phases), x1 = 0.8	170.03
493.15 K, 4439 kPa, Fluid (supercritical or subcritical phases), x1 = 0.9	189.73
493.15 K, 4462 kPa, Fluid (supercritical or subcritical phases), x1 = 0.8	176.28
493.15 K, 4502 kPa, Fluid (supercritical or subcritical phases), x1 = 0.8	181.09
493.15 K, 4518 kPa, Fluid (supercritical or subcritical phases), x1 = 0.9	202.67
493.15 K, 4547 kPa, Fluid (supercritical or subcritical phases), x1 = 0.8	193.44
493.15 K, 4549 kPa, Fluid (supercritical or subcritical phases), x1 = 0.5	320.48
493.15 K, 4592 kPa, Fluid (supercritical or subcritical phases), x1 = 0.5	325.77
493.15 K, 4629 kPa, Fluid (supercritical or subcritical phases), x1 = 0.9	221.01
493.15 K, 4679 kPa, Fluid (supercritical or subcritical phases), x1 = 0.8	214.17
493.15 K, 4710 kPa, Fluid (supercritical or subcritical phases), x1 = 0.8	219.94
493.15 K, 4720 kPa, Fluid (supercritical or subcritical phases), x1 = 0.9	233.41
493.15 K, 4743 kPa, Fluid (supercritical or subcritical phases), x1 = 0.9	236.88
493.15 K, 4769 kPa, Fluid (supercritical or subcritical phases), x1 = 0.9	241.29
493.15 K, 4776 kPa, Fluid (supercritical or subcritical phases), x1 = 0.5	345.09
493.15 K, 4792 kPa, Fluid (supercritical or subcritical phases), x1 = 0.9	244.6
493.15 K, 4810 kPa, Fluid (supercritical or subcritical phases), x1 = 0.8	235.05
493.15 K, 4875 kPa, Fluid (supercritical or subcritical phases), x1 = 0.8	245.71
493.15 K, 4935 kPa, Fluid (supercritical or subcritical phases), x1 = 0.8	258.95
493.15 K, 5020 kPa, Fluid (supercritical or subcritical phases), x1 = 0.9	282.43
493.15 K, 5042 kPa, Fluid (supercritical or subcritical phases), x1 = 0.8	272.94
493.15 K, 5149 kPa, Fluid (supercritical or subcritical phases), x1 = 0.8	288.82
493.15 K, 5207 kPa, Fluid (supercritical or subcritical phases), x1 = 0.5	373.47
493.15 K, 5245 kPa, Fluid (supercritical or subcritical phases), x1 = 0.9	302.14
493.15 K, 5306 kPa, Fluid (supercritical or subcritical phases), x1 = 0.8	299.65
493.15 K, 5423 kPa, Fluid (supercritical or subcritical phases), x1 = 0.9	312.8
493.15 K, 5594 kPa, Fluid (supercritical or subcritical phases), x1 = 0.8	315.85
493.15 K, 5904 kPa, Fluid (supercritical or subcritical phases), x1 = 0.9	334.55
493.15 K, 5953 kPa, Fluid (supercritical or subcritical phases), x1 = 0.5	398.77
493.15 K, 5998 kPa, Fluid (supercritical or subcritical phases), x1 = 0.8	334.37
493.15 K, 6296 kPa, Fluid (supercritical or subcritical phases), x1 = 0.8	345.91
493.15 K, 6629 kPa, Fluid (supercritical or subcritical phases), x1 = 0.9	354.68
493.15 K, 6775 kPa, Fluid (supercritical or subcritical phases), x1 = 0.5	417.91
493.15 K, 7003 kPa, Fluid (supercritical or subcritical phases), x1 = 0.8	362.51
493.15 K, 7649 kPa, Liquid, x1 = 0.2	510.49
493.15 K, 8441 kPa, Fluid (supercritical or subcritical phases), x1 = 0.5	441.69
493.15 K, 9382 kPa, Fluid (supercritical or subcritical phases), x1 = 0.5	452.03
493.15 K, 10256 kPa, Fluid (supercritical or subcritical phases), x1 = 0.9	407.97
493.15 K, 10826 kPa, Fluid (supercritical or subcritical phases), x1 = 0.8	418.91
493.15 K, 11783 kPa, Fluid (supercritical or subcritical phases), x1 = 0.5	468.97
493.15 K, 14598 kPa, Liquid, x1 = 0.2	548.05
493.15 K, 18923 kPa, Fluid (supercritical or subcritical phases), x1 = 0.8	467.52
493.15 K, 23193 kPa, Fluid (supercritical or subcritical phases), x1 = 0.5	520.3
493.15 K, 26040 kPa, Liquid, x1 = 0.2	582.45
493.15 K, 27225 kPa, Fluid (supercritical or subcritical phases), x1 = 0.8	497.01
493.15 K, 32486 kPa, Fluid (supercritical or subcritical phases), x1 = 0.5	549.21
493.15 K, 32782 kPa, Liquid, x1 = 0.2	596.07
493.15 K, 37919 kPa, Fluid (supercritical or subcritical phases), x1 = 0.8	521.58
493.15 K, 43289 kPa, Liquid, x1 = 0.2	615.49
494.15 K, 4206 kPa, Gas, x1 = 0.5	154.71
494.15 K, 4318 kPa, Gas, x1 = 0.5	183.11
494.15 K, 4366 kPa, Fluid (supercritical or subcritical phases), x1 = 0.5	251.05
498.15 K, 4515 kPa, Fluid (supercritical or subcritical phases), x1 = 0.5	183.07
498.15 K, 4637 kPa, Fluid (supercritical or subcritical phases), x1 = 0.5	251
498.15 K, 4641 kPa, Fluid (supercritical or subcritical phases), x1 = 0.5	260.06
503.15 K, 912 kPa, Gas, x1 = 0.5	15.53
503.15 K, 1255 kPa, Gas, x1 = 0.8	22.55
503.15 K, 1464 kPa, Gas, x1 = 0.2	24.95
503.15 K, 1642 kPa, Gas, x1 = 0.5	30.01
503.15 K, 1866 kPa, Gas, x1 = 0.8	36.72
503.15 K, 2163 kPa, Gas, x1 = 0.5	40.52
503.15 K, 2523 kPa, Gas, x1 = 0.5	51.14
503.15 K, 2701 kPa, Gas, x1 = 0.8	58.47
503.15 K, 2838 kPa, Gas, x1 = 0.2	53.06
503.15 K, 3137 kPa, Gas, x1 = 0.5	67.58
503.15 K, 3169 kPa, Gas, x1 = 0.8	73.86
503.15 K, 3305 kPa, Gas, x1 = 0.5	72.67
503.15 K, 3338 kPa, Gas, x1 = 0.9	83.46
503.15 K, 3585 kPa, Gas, x1 = 0.2	91.5
503.15 K, 3654 kPa, Gas, x1 = 0.5	88.99
503.15 K, 3800 kPa, Gas, x1 = 0.5	95.94
503.15 K, 3948 kPa, Fluid (supercritical or subcritical phases), x1 = 0.8	106.5
503.15 K, 4106 kPa, Fluid (supercritical or subcritical phases), x1 = 0.9	123.46
503.15 K, 4150 kPa, Liquid, x1 = 0.2	419.16
503.15 K, 4247 kPa, Fluid (supercritical or subcritical phases), x1 = 0.5	122.01
503.15 K, 4264 kPa, Fluid (supercritical or subcritical phases), x1 = 0.9	134.25
503.15 K, 4466 kPa, Fluid (supercritical or subcritical phases), x1 = 0.5	144.25
503.15 K, 4546 kPa, Fluid (supercritical or subcritical phases), x1 = 0.8	140.44
503.15 K, 4573 kPa, Fluid (supercritical or subcritical phases), x1 = 0.5	154.64
503.15 K, 4621 kPa, Fluid (supercritical or subcritical phases), x1 = 0.9	164.11
503.15 K, 4653 kPa, Fluid (supercritical or subcritical phases), x1 = 0.5	165.3
503.15 K, 4689 kPa, Fluid (supercritical or subcritical phases), x1 = 0.8	156.19
503.15 K, 4764 kPa, Fluid (supercritical or subcritical phases), x1 = 0.5	183.03
503.15 K, 4818 kPa, Fluid (supercritical or subcritical phases), x1 = 0.8	169.95
503.15 K, 4821 kPa, Fluid (supercritical or subcritical phases), x1 = 0.5	200.59
503.15 K, 4859 kPa, Fluid (supercritical or subcritical phases), x1 = 0.9	189.64
503.15 K, 4864 kPa, Fluid (supercritical or subcritical phases), x1 = 0.5	210.43
503.15 K, 4865 kPa, Fluid (supercritical or subcritical phases), x1 = 0.8	176.2
503.15 K, 4895 kPa, Fluid (supercritical or subcritical phases), x1 = 0.5	224.27
503.15 K, 4924 kPa, Fluid (supercritical or subcritical phases), x1 = 0.8	181
503.15 K, 4956 kPa, Fluid (supercritical or subcritical phases), x1 = 0.5	241.74
503.15 K, 4976 kPa, Fluid (supercritical or subcritical phases), x1 = 0.5	250.94
503.15 K, 4988 kPa, Fluid (supercritical or subcritical phases), x1 = 0.9	202.57
503.15 K, 4993 kPa, Fluid (supercritical or subcritical phases), x1 = 0.5	260
503.15 K, 5013 kPa, Fluid (supercritical or subcritical phases), x1 = 0.8	193.35
503.15 K, 5023 kPa, Fluid (supercritical or subcritical phases), x1 = 0.5	270.83
503.15 K, 5099 kPa, Fluid (supercritical or subcritical phases), x1 = 0.5	282.66
503.15 K, 5158 kPa, Fluid (supercritical or subcritical phases), x1 = 0.9	220.9
503.15 K, 5187 kPa, Fluid (supercritical or subcritical phases), x1 = 0.8	214.06
503.15 K, 5234 kPa, Fluid (supercritical or subcritical phases), x1 = 0.8	219.83
503.15 K, 5246 kPa, Fluid (supercritical or subcritical phases), x1 = 0.5	298.97
503.15 K, 5287 kPa, Fluid (supercritical or subcritical phases), x1 = 0.9	233.29
503.15 K, 5320 kPa, Fluid (supercritical or subcritical phases), x1 = 0.9	236.76
503.15 K, 5356 kPa, Fluid (supercritical or subcritical phases), x1 = 0.9	241.17
503.15 K, 5385 kPa, Fluid (supercritical or subcritical phases), x1 = 0.9	244.48
503.15 K, 5390 kPa, Fluid (supercritical or subcritical phases), x1 = 0.8	234.94
503.15 K, 5482 kPa, Fluid (supercritical or subcritical phases), x1 = 0.8	245.58
503.15 K, 5510 kPa, Fluid (supercritical or subcritical phases), x1 = 0.5	320.32
503.15 K, 5579 kPa, Fluid (supercritical or subcritical phases), x1 = 0.5	325.6
503.15 K, 5611 kPa, Fluid (supercritical or subcritical phases), x1 = 0.8	258.82
503.15 K, 5786 kPa, Fluid (supercritical or subcritical phases), x1 = 0.9	282.29
503.15 K, 5797 kPa, Fluid (supercritical or subcritical phases), x1 = 0.8	272.8
503.15 K, 5864 kPa, Fluid (supercritical or subcritical phases), x1 = 0.5	344.91

mass density [kg/m3], Liquid
Conditions	492.65 K	492.95 K	493.15 K	502.95 K
x1 = 0.2	–	–	–	419.16
x1 = 0.5	282.81	270.96	260.13	–
